Data set [1] in a line: Stabilizing agent: dried yeast cells containing SAM with added compound preserved at 25° C. for 7 days. It counts as physicochemical. The procedure:
The yeast cells obtained in the Reference Example were suspended in deionized water in one-sixth (⅙) of the amount of the culture solution. Each of the compounds listed in table 3 (30% by weight in terms of dry weight) was separately added to the resultant, followed by freezing at −80° C. and lyophilization. Thus, dried yeast cells containing SAM were obtained.

Data set [2] is described as follows: Bioabsorbability of dried yeast cells containing (SS)-SAM, oral administration (Example 4). It counts as in vivo. As to conditions: SD rats, 20 g/L SAM at 5 ml/kg b.w. As for the experimental part:
The resultant was orally administered to rats in the same manner such that comparative control examples were obtained. Before administration and 1, 2, 3, 5, or 8 hours after administration, blood was collected from the jugular vein without any anesthesia and with the use of heparin as an anticoagulant. The plasma components were collected via centrifugation. A 0.4 g/L trichloroacetic acid aqueous solution (40 μL) was added to the obtained plasma (200 μL), followed by mixing and centrifugation. The SAM concentration in the obtained supernatant was analyzed by HPLC. FIG. 1 and table 4 show the results.

Data set [3] is described as follows: Bioabsorbability of spray-dried yeast cells containing (SS)-SAM, oral administration (Example 5). Type of data set: in vivo. Conditions: SD rats, 20 g/L SAM at 5 ml/kg b.w. The procedure:
The obtained dried yeast cells were matured in the presence of silica gel at 40° C. for 7 days. Thus, dried yeast cells containing (SS)-SAM were obtained. The obtained dried yeast cells containing (SS)-SAM were suspended in distilled water to result in an SAM concentration of 20 g/L. The resultant was orally administered to SD rats (male, 17 weeks old) at a dose of 5 ml/kg b.w. […] The resultant was orally administered to rats in the same manner such that comparative control examples were obtained. Before administration and 1, 2, 3, 5, or 8 hours after administration, blood collection was carried out from the jugular vein without any anesthesia and with the use of heparin as an anticoagulant. The plasma components were collected via centrifugation. A 0.4 g/L trichloroacetic acid aqueous solution (40 μL) was added to the obtained plasma (200 μl), followed by mixing and centrifugation. The SAM concentration in the obtained supernatant was analyzed by HPLC.

Where [4] appears, read: compound added at 30% by weight to dried yeast cells, 25° C., 7 days.

Structures can show the parent of a compound that is named as a salt. Where two headings read alike, the source gives them in different places.

In turn, Inulin displayed an SAM residual rate in data set [1] (setting [4]) of 93.1%.

In turn, `OC[C@H]1O[C@@H](O[C@H]2[C@H](O)[C@@H](O)[C@H](O)O[C@@H]2CO)[C@H](O)[C@@H](O)[C@@H]1O` [D-cellobiose] registered an SAM residual rate in data set [1] (setting [4]) of 93.1%.

As to `OC[C@H]1O[C@@](CO)(O[C@H]2O[C@H](CO)[C@@H](O)[C@H](O)[C@H]2O)[C@@H](O)[C@@H]1O` [Sucrose], the SAM residual rate in data set [1] (setting [4]) is on record as 93.8%.

The compound `NCC(=O)O` [Glycine] had an SAM residual rate in data set [1] (setting [4]) of 97.5%.

Take `NC(=O)CC[C@H](N)C(=O)O` [L-glutamine]: the SAM residual rate in data set [1] (setting [4]) is reported as 94.5%.

On to `NC(=O)c1cccnc1` [Nicotinic-acid amide], for which, in data set [1] (setting [4]), the SAM residual rate came to 97.3%.

In data set [1] (setting [4]), `O=C(O)[C@H](O)[C@@H](O)C(=O)O` [L-tartaric acid] displayed an SAM residual rate of 88.1%.

Compound `C[C@@H](O)[C@H](N)C(=O)O` [L-threonine] had an SAM residual rate in data set [1] (setting [4]) of 92.0%.

Compound `O=C([O-])[C@H](O)[C@@H](O)[C@H](O)[C@H](O)CO.[Na+]` [Sodium gluconate] displayed an SAM residual rate in data set [1] (setting [4]) of 89.1%.

Turning to `OC[C@@H](O)[C@@H](O)[C@H](O)[C@@H](O)CO` [Sorbitol], the SAM residual rate in data set [1] (setting [4]) amounted to 98.2%.

Consider `N.O=P(O)(O)O` [Ammonium dihydrogen phosphate], for which the SAM residual rate in data set [1] is given as 93.6%.

In data set [1] (setting [4]), Fructo-oligosaccharide returned an SAM residual rate of 85.9%.

`OC[C@@H](O)[C@@H](O[C@@H]1O[C@H](CO)[C@H](O)[C@H](O)[C@H]1O)[C@H](O)[C@@H](O)CO` [Lactitol] had an SAM residual rate in data set [1] (setting [4]) of 91.3%.

Compound `Cl.N` [Ammonium chloride] had an SAM residual rate in data set [1] (setting [4]) of 95.6%.

For `OC[C@@H](O)[C@@H](O)[C@H](O)[C@H](O)CO` [Mannitol], in data set [1] (setting [4]), the SAM residual rate is 86.8%.

The compound `Cc1ncc(C[n+]2csc(CCO)c2C)c(N)n1` [thiamine hydrochloride] showed an SAM residual rate in data set [1] (setting [4]) of 99.5%.

`[Ca+2].[Cl-].[Cl-]` [Calcium chloride]: in data set [1], the SAM residual rate amounted to 93.7%.

In turn, Cellulose gave an SAM residual rate in data set [1] (setting [4]) of 92.0%.

Regarding `O=C(CO)[C@@H](O)[C@H](O)[C@@H](O)CO` [L-sorbose], the SAM residual rate in data set [1] (setting [4]) came to 88.4%.

As for `OC[C@@H](O)[C@H](O)[C@H](O)[C@@H](O)CO` [Dulcitol], the SAM residual rate in data set [1] (setting [4]) is 92.2%.

Regarding `O=S(=O)([O-])[O-].[Mn+2]` [Manganese sulfate], the SAM residual rate in data set [1] (setting [4]) stood at 95.0%.

On to `O=S(=O)([O-])[O-].[Cu+2]` [Copper sulfate], for which, in data set [1], the SAM residual rate was found to be 94.2%.

Turning to `O=C1O[C@H]([C@@H](O)CO)C(O)=C1O` [L-ascorbic acid], the SAM residual rate in data set [1] (setting [4]) came to 90.0%.

Consider `CC(=O)N[C@H]1C(O)O[C@H](CO)[C@@H](O)[C@@H]1O` (stereo partly drawn) [N-acetylglucosamine], for which the SAM residual rate in data set [1] (setting [4]) was determined as 97.6%.

As to `O.O.O.O.O.O.O.O=S(=O)([O-])[O-].[Fe+2]` [Ferrous sulfate heptahydrate], the SAM residual rate in data set [1] worked out at 90.4%.

The compound Isomalto-oligosaccharide displayed an SAM residual rate in data set [1] (setting [4]) of 84.9%.

For `O=S(=O)([O-])[O-].[Zn+2]` [Zinc sulfate], the SAM residual rate in data set [1] is 94.3%.

The compound `O=C(O)c1cccnc1` [Nicotinic acid] displayed an SAM residual rate in data set [1] (setting [4]) of 102.3%.

The compound `CCC(N)C(=O)O` (racemic) [DL-α-amino-n-butyrate] gave an SAM residual rate in data set [1] (setting [4]) of 96.8%.

Turning to `N.N.O=S(=O)(O)O` [Ammonium sulfate], the SAM residual rate in data set [1] (setting [4]) was 87.5%.

As for `O=C[C@H](O)[C@@H](O)[C@@H](O)[C@H](O)CO` [Galactose], the SAM residual rate in data set [1] (setting [4]) was 99.7%.

The compound `O=C(O)CC(O)C(=O)O` (racemic) [DL-malic acid] showed an SAM residual rate in data set [1] (setting [4]) of 99.1%.

Turning to `O=S(=O)([O-])[O-].[Mg+2]` [Magnesium sulfate], the SAM residual rate in data set [1] stood at 101.6%.

`CC(C)C[C@@H](N)C(=O)O` [D-leucine]: the SAM residual rate in data set [1] (setting [4]) was 91.9%.

Regarding `O=C(O)CC(O)(CC(=O)O)C(=O)O` [Citric acid], in data set [1] (setting [4]), the SAM residual rate is on record as 96.6%.

Regarding `OC[C@@H](O)[C@H](O)[C@H](O)[C@@H](O)CO` [Galactitol], in data set [1] (setting [4]), the SAM residual rate is 90.7%.

In turn, Ferric chloride hexahydrate came in with an SAM residual rate in data set [1] (setting [4]) of 95.7%.

In turn, `CC(C)[C@H](N)C(=O)O` [L-valine] gave an SAM residual rate in data set [1] (setting [4]) of 89.7%.

Glycogen: the SAM residual rate in data set [1] (setting [4]) worked out at 94.6%.

Turning to `C[S+](CC[C@H](N)C(=O)[O-])C[C@H]1O[C@@H](n2cnc3c(N)ncnc32)[C@H](O)[C@@H]1O.Cc1ccc(S(=O)(=O)O)cc1.O=S(=O)(O)O.O=S(=O)(O)O` (stereo partly drawn) [SAM/p-toluenesulfonic acid/sulfate], the “Area under SAM concentration curve (AUC)” value was found to be 3200 ng·h/mL in data set [2] (AUC at 8 hours after administration, dried yeast cells of Example 1) and 3200 ng·h/mL in data set [3] (AUC at 8 hours after administration, dried yeast cells of Example 5). The “Maximum SAM concentration in plasma” value in data set [2] (dried yeast cells of Example 1 (lyophilized)) and in data set [3] (dried yeast cells of Example 5 (spray dried)) was 0.771 µg/mL in each case.

Turning to `O[C@H]1[C@H](O)[C@@H](O)[C@H](O)[C@@H](O)[C@H]1O` [Inositol], the SAM residual rate in data set [1] (setting [4]) is listed as 96.2%.

In data set [1] (setting [4]), `O=C1O[C@H](CO)[C@@H](O)[C@H](O)[C@H]1O` [Glucono-δ-lactone] registered an SAM residual rate of 100.7%.

For the compound `C[C@H](N)C(=O)O` [L-alanine], the SAM residual rate in data set [1] (setting [4]) came out at 86.9%.

The compound `CSCC[C@H](N)C(=O)O` [L-methionine] showed an SAM residual rate in data set [1] (setting [4]) of 100.9%.

Take `O=P(O)(O)O` [Phosphoric acid]: the SAM residual rate in data set [1] (setting [4]) was 89.3%.

Source of the values: US20110052623A1, “DRIED MICROBIAL CELLS OR MICROORGANISM EXTRACT CONTAINING STABILIZED (SS)-S-ADENOSYL-L-METHIONINE AND METHOD FOR PRODUCTION OF THE DRIED MICROORGANISM CELL OR MICROORGANISM EXTRACT” (KANEKA CORPORATION, priority 2007, published 2011).
